# Measured values as given in ChEMBL document CHEMBL3885881, “DrugMatrix”.
# Species: Rattus norvegicus
# Type: toxicity, organism-based, Sprague-Dawley
# Conditions: in vivo, po, route oral GAVAGE, […]; for ABSOLUTE EOSINOPHIL / ABSOLUTE LYMPHOCYTE / ABSOLUTE MONOCYTE / ABSOLUTE SEGMENTED NEUTROPHIL / BASOPHIL / EOSINOPHIL / ERYTHROCYTE COUNT / HEMATOCRIT / HEMOGLOBIN / LEUKOCYTE COUNT / LYMPHOCYTE / MEAN CORPUSCULAR HEMOGLOBIN / MEAN CORPUSCULAR HEMOGLOBIN CONCENTRATION / MEAN CORPUSCULAR VOLUME / MONOCYTE / NEUTROPHIL / NUCLEATED RED BLOOD CELLS / PLATELET COUNT: tissue Blood; for ALANINE AMINOTRANSFERASE / ALBUMIN / ALKALINE PHOSPHATASE / ASPARTATE AMINOTRANSFERASE / BLOOD UREA NITROGEN / CARBON DIOXIDE / CHLORIDE / CHOLESTEROL / CREATINE PHOSPHOKINASE / CREATININE / GLUCOSE / LACTATE DEHYDROGENASE / LIPASE / PHOSPHORUS / POTASSIUM / SODIUM / TOTAL BILIRUBIN / TOTAL PROTEIN / URIC ACID: tissue Plasma
# [1] = 0 mg/kg, 6 h, vehicle control, dose level Control, time 0.25 day
# [2] = 0 mg/kg, 24 h, vehicle control, dose level Control, time 1 day
# [3] = 130 mg/kg, 6 h, dose level Low, time 0.25 day
# Description: DrugMatrix - Regimen: Single
smiles,measurement,setting,value
CCOC(=O)C(C)(C)Oc1ccc(Cl)cc1 [CLOFIBRATE],ABSOLUTE EOSINOPHIL,[1],0 CELLS/uL
same,ABSOLUTE LYMPHOCYTE,[1],8631 CELLS/uL
same,ABSOLUTE MONOCYTE,[1],171.17 CELLS/uL
same,ABSOLUTE SEGMENTED NEUTROPHIL,[1],1214.5 CELLS/uL
same,BASOPHIL,[1],0%
same,EOSINOPHIL,[1],0%
same,ERYTHROCYTE COUNT,[1],5.42 x10E6/uL
same,HEMATOCRIT,[1],34.7%
same,HEMOGLOBIN,[1],13.67 G/DL
same,LEUKOCYTE COUNT,[1],10.02 x10E3/uL
same,LYMPHOCYTE,[1],86.17%
same,MEAN CORPUSCULAR HEMOGLOBIN,[1],25.27 pg
same,MEAN CORPUSCULAR HEMOGLOBIN CONCENTRATION,[1],39.42 G/DL
same,MEAN CORPUSCULAR VOLUME,[1],64.12 fL
same,MONOCYTE,[1],1.67%
same,NEUTROPHIL,[1],12.17%
same,NUCLEATED RED BLOOD CELLS,[1],0 /100WBC
same,PLATELET COUNT,[1],1050 x10E3/uL
same,ALANINE AMINOTRANSFERASE,[1],61 u/L
same,ALBUMIN,[1],4.67 G/DL
same,ALKALINE PHOSPHATASE,[1],312.5 u/L
same,ASPARTATE AMINOTRANSFERASE,[1],117.5 u/L
same,BLOOD UREA NITROGEN,[1],8.67 mg/dL
same,CARBON DIOXIDE,[1],26.33 mmol/L
same,CHLORIDE,[1],100.5 MEQ/L
same,CHOLESTEROL,[1],72 mg/dL
same,CREATINE PHOSPHOKINASE,[1],283.33 u/L
same,CREATININE,[1],0.28 mg/dL
same,GLUCOSE,[1],172 mg/dL
same,LACTATE DEHYDROGENASE,[1],95.33 u/L
same,LIPASE,[1],10.17 u/L
same,PHOSPHORUS,[1],9.9 mg/dL
same,POTASSIUM,[1],5.75 MEQ/L
same,SODIUM,[1],142.4 MEQ/L
same,TOTAL BILIRUBIN,[1],0.3 mg/dL
same,TOTAL PROTEIN,[1],5.43 G/DL
same,URIC ACID,[1],0.73 mg/dL
same,ABSOLUTE EOSINOPHIL,[2],90.83 CELLS/uL
same,ABSOLUTE LYMPHOCYTE,[2],14725.17 CELLS/uL
same,ABSOLUTE MONOCYTE,[2],220 CELLS/uL
same,ABSOLUTE SEGMENTED NEUTROPHIL,[2],1080.67 CELLS/uL
same,BASOPHIL,[2],0%
same,EOSINOPHIL,[2],0.67%
same,ERYTHROCYTE COUNT,[2],5.3 x10E6/uL
same,HEMATOCRIT,[2],33.4%
same,HEMOGLOBIN,[2],13.4 G/DL
same,LEUKOCYTE COUNT,[2],16.12 x10E3/uL
same,LYMPHOCYTE,[2],91.17%
same,MEAN CORPUSCULAR HEMOGLOBIN,[2],25.3 pg
same,MEAN CORPUSCULAR HEMOGLOBIN CONCENTRATION,[2],40.12 G/DL
same,MEAN CORPUSCULAR VOLUME,[2],63.05 fL
same,MONOCYTE,[2],1.5%
same,NEUTROPHIL,[2],6.67%
same,NUCLEATED RED BLOOD CELLS,[2],0 /100WBC
same,PLATELET COUNT,[2],1062 x10E3/uL
same,ALANINE AMINOTRANSFERASE,[2],69 u/L
same,ALBUMIN,[2],4.33 G/DL
same,ALKALINE PHOSPHATASE,[2],269 u/L
same,ASPARTATE AMINOTRANSFERASE,[2],83.67 u/L
same,BLOOD UREA NITROGEN,[2],14 mg/dL
same,CARBON DIOXIDE,[2],29 mmol/L
same,CHLORIDE,[2],100.83 MEQ/L
same,CHOLESTEROL,[2],66.67 mg/dL
same,CREATINE PHOSPHOKINASE,[2],355 u/L
same,CREATININE,[2],0.18 mg/dL
same,GLUCOSE,[2],161.33 mg/dL
same,LACTATE DEHYDROGENASE,[2],123.33 u/L
same,LIPASE,[2],10.67 u/L
same,PHOSPHORUS,[2],8.83 mg/dL
same,POTASSIUM,[2],6.06 MEQ/L
same,SODIUM,[2],142.45 MEQ/L
same,TOTAL BILIRUBIN,[2],0.2 mg/dL
same,TOTAL PROTEIN,[2],5.72 G/DL
same,URIC ACID,[2],1.27 mg/dL
same,ABSOLUTE EOSINOPHIL,[3],53.33 CELLS/uL
same,ABSOLUTE LYMPHOCYTE,[3],12668.17 CELLS/uL
same,ABSOLUTE MONOCYTE,[3],233.17 CELLS/uL
same,ABSOLUTE SEGMENTED NEUTROPHIL,[3],1278.67 CELLS/uL
same,BASOPHIL,[3],0%
same,EOSINOPHIL,[3],0.33%
same,ERYTHROCYTE COUNT,[3],5.56 x10E6/uL
same,HEMATOCRIT,[3],34.18%
same,HEMOGLOBIN,[3],13.43 G/DL
same,LEUKOCYTE COUNT,[3],14.23 x10E3/uL
same,LYMPHOCYTE,[3],88.83%
same,MEAN CORPUSCULAR HEMOGLOBIN,[3],24.17 pg
same,MEAN CORPUSCULAR HEMOGLOBIN CONCENTRATION,[3],39.33 G/DL
same,MEAN CORPUSCULAR VOLUME,[3],61.53 fL
same,MONOCYTE,[3],1.67%
same,NEUTROPHIL,[3],9.17%
same,NUCLEATED RED BLOOD CELLS,[3],0 /100WBC
same,PLATELET COUNT,[3],1136.67 x10E3/uL
same,ALANINE AMINOTRANSFERASE,[3],40.17 u/L
same,ALBUMIN,[3],4.38 G/DL
same,ALKALINE PHOSPHATASE,[3],384.83 u/L
same,ASPARTATE AMINOTRANSFERASE,[3],76.67 u/L
same,BLOOD UREA NITROGEN,[3],7.4 mg/dL
same,CARBON DIOXIDE,[3],25 mmol/L
same,CHLORIDE,[3],101.4 MEQ/L
same,CHOLESTEROL,[3],63.33 mg/dL
same,CREATINE PHOSPHOKINASE,[3],249.67 u/L
same,CREATININE,[3],0.36 mg/dL
same,GLUCOSE,[3],139.83 mg/dL
same,LACTATE DEHYDROGENASE,[3],146.17 u/L
same,LIPASE,[3],10.2 u/L
same,PHOSPHORUS,[3],10.1 mg/dL
same,POTASSIUM,[3],5.97 MEQ/L
same,SODIUM,[3],142.94 MEQ/L
same,TOTAL BILIRUBIN,[3],0.38 mg/dL
same,TOTAL PROTEIN,[3],5.73 G/DL
same,URIC ACID,[3],0.96 mg/dL
